Assay results published in ChEMBL document CHEMBL1201862, “PubChem BioAssay data set” (2004).
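In this assay, cells in 96-well plates receive the compound at five concentrations for 48 hours. Endpoints are linearly interpolated between the surrounding concentrations. GI50 = concentration required for 50% inhibition of growth.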 Active and inactive are the calls of the source. Rule as the data show it: active = GI50 up to about 1.1 µM and inactive = higher.

Assays:
Experiment in all cases: NCI tumour cell line growth inhibition, 48 h
OVCAR-3 = tested on: OVCAR-3
HCC 2998 = tested on: HCC 2998
OVCAR-5 = tested on: OVCAR-5
SF-539 = tested on: SF-539
SK-MEL-28 = tested on: SK-MEL-28
NCI-H460 = tested on: NCI-H460
CCRF-CEM = tested on: CCRF-CEM
M14 = tested on: M14
SW-620 = tested on: SW-620
UO-31 = tested on: UO-31
A549 = tested on: A549
SF-295 = tested on: SF-295
NCI-H226 = tested on: NCI-H226
TK-10 = tested on: TK-10
SNB-75 = tested on: SNB-75
HCT-116 = tested on: HCT-116
UACC-257 = tested on: UACC-257
MDA-MB-231 = tested on: MDA-MB-231
SK-MEL-2 = tested on: SK-MEL-2
MOLT-4 = tested on: MOLT-4
CAKI-1 = tested on: CAKI-1
RPMI-8226 = tested on: RPMI-8226
SK-OV-3 = tested on: SK-OV-3
NCI-H23 = tested on: NCI-H23
SR = tested on: SR
COLO 205 = tested on: COLO 205
NCI/ADR-RES = tested on: NCI/ADR-RES
HCT-15 = tested on: HCT-15
KM12 = tested on: KM12
PC-3 = tested on: PC-3
IGROV-1 = tested on: IGROV-1
SK-MEL-5 = tested on: SK-MEL-5
K562 = tested on: K562
786-0 = tested on: 786-0
UACC-62 = tested on: UACC-62
SN12C = tested on: SN12C
HT-29 = tested on: HT-29
U-251 = tested on: U-251
OVCAR-4 = tested on: OVCAR-4
RXF 393 = tested on: RXF 393
MDA-MB-435 = tested on: MDA-MB-435
BT-549 = tested on: BT-549
ACHN = tested on: ACHN
HOP-92 = tested on: HOP-92
T47D = tested on: T47D
HOP-62 = tested on: HOP-62
SNB-19 = tested on: SNB-19
NCI-H522 = tested on: NCI-H522
MCF7 = tested on: MCF7
DU-145 = tested on: DU-145
LOX IMVI = tested on: LOX IMVI
MDA-N = tested on: MDA-N
EKVX = tested on: EKVX
Malme-3M = tested on: Malme-3M
OVCAR-8 = tested on: OVCAR-8
HL-60 = tested on: HL-60
A498 = tested on: A498
SF-268 = tested on: SF-268

In the case of `COC(=O)[C@H](C)NC(=O)[C@H](CSC)N1C(=O)N[C@@H](C(C)C)C1=O`, the GI50 (OVCAR-3) is reported as > 100 µM (inactive), the GI50 (HCC 2998) is reported as > 100 µM (inactive) and the GI50 (OVCAR-5) is reported as > 100 µM (inactive). The GI50 (SF-539) was > 100 µM (inactive), the GI50 (SK-MEL-28) was > 100 µM (inactive) and the GI50 (NCI-H460) was 71.3 µM (inactive). For the same molecule, the GI50 (CCRF-CEM) was 29.6 µM (inactive), the GI50 (M14) was > 100 µM (inactive) and the GI50 (SW-620) was > 100 µM (inactive). The GI50 (UO-31) was > 100 µM (inactive), the GI50 (A549) was > 100 µM (inactive) and the GI50 (SF-295) was > 100 µM (inactive). The GI50 (NCI-H226) was > 100 µM (inactive), the GI50 (TK-10) was > 100 µM (inactive) and the GI50 (SNB-75) was 12.5 µM (inactive). For the same molecule, the GI50 (HCT-116) was > 100 µM (inactive), the GI50 (UACC-257) was > 100 µM (inactive) and the GI50 (MDA-MB-231) was > 100 µM (inactive). The GI50 (SK-MEL-2) was > 100 µM (inactive), the GI50 (MOLT-4) was 32.7 µM (inactive) and the GI50 (CAKI-1) was > 100 µM (inactive). For the same molecule, the GI50 (RPMI-8226) was > 100 µM (inactive), the GI50 (SK-OV-3) was > 100 µM (inactive) and the GI50 (NCI-H23) was > 100 µM (inactive). For the same molecule, the GI50 (SR) was > 100 µM (inactive), the GI50 (COLO 205) was > 100 µM (inactive) and the GI50 (NCI/ADR-RES) was > 100 µM (inactive). The GI50 (HCT-15) was greater than 100 µM, the GI50 (KM12) was > 100 µM (inactive) and the GI50 (PC-3) was > 100 µM (inactive). For the same molecule, the GI50 (IGROV-1) was > 100 µM (inactive), the GI50 (SK-MEL-5) was > 100 µM (inactive) and the GI50 (K562) was 85.5 µM (inactive). For the same molecule, the GI50 (786-0) was > 100 µM (inactive), the GI50 (UACC-62) was > 100 µM (inactive) and the GI50 (SN12C) was > 100 µM (inactive). For the same molecule, the GI50 (HT-29) was > 100 µM (inactive), the GI50 (U-251) was > 100 µM (inactive) and the GI50 (OVCAR-4) was > 100 µM (inactive). The GI50 (RXF 393) was > 100 µM (inactive), the GI50 (MDA-MB-435) was > 100 µM (inactive) and the GI50 (BT-549) was > 100 µM (inactive). The GI50 (ACHN) was > 100 µM (inactive), the GI50 (HOP-92) was > 100 µM (inactive) and the GI50 (T47D) was > 100 µM (inactive). For the same molecule, the GI50 (HOP-62) was > 100 µM (inactive), the GI50 (SNB-19) was > 100 µM (inactive) and the GI50 (NCI-H522) was > 100 µM (inactive). The GI50 (MCF7) was > 100 µM (inactive), the GI50 (DU-145) was > 100 µM (inactive) and the GI50 (LOX IMVI) was > 100 µM (inactive). The GI50 (MDA-N) was > 100 µM (inactive), the GI50 (EKVX) was > 100 µM (inactive) and the GI50 (Malme-3M) was 49 µM (inactive). For the same molecule, the GI50 (OVCAR-8) was > 100 µM (inactive).

In the case of `C=C1c2nc3ccccc3n2C=C(c2ccccc2)N1c1ccc(OC)cc1`, the GI50 (OVCAR-3) is reported as 57.8 µM (inactive), the GI50 (OVCAR-5) is reported as 43.7 µM (inactive) and the GI50 (SF-539) is reported as 14 µM (inactive). For the same molecule, the GI50 (NCI-H460) was 11.7 µM (inactive), the GI50 (HL-60) was 29.8 µM (inactive) and the GI50 (CCRF-CEM) was 22.8 µM (inactive). For the same molecule, the GI50 (M14) was 13.2 µM (inactive), the GI50 (SW-620) was 47.5 µM (inactive) and the GI50 (UO-31) was 4.52 µM (inactive). The GI50 (A549) was 18.5 µM (inactive), the GI50 (SF-295) was 10.7 µM (inactive) and the GI50 (NCI-H226) was 11 µM (inactive). For the same molecule, the GI50 (TK-10) was 12.5 µM (inactive), the GI50 (SNB-75) was 3.68 µM (inactive) and the GI50 (HCT-116) was 17.5 µM (inactive). For the same molecule, the GI50 (UACC-257) was 31.8 µM (inactive), the GI50 (MDA-MB-231) was 40.2 µM (inactive) and the GI50 (SK-MEL-2) was 28.6 µM (inactive). For the same molecule, the GI50 (MOLT-4) was 18.9 µM (inactive), the GI50 (CAKI-1) was 25.5 µM (inactive) and the GI50 (RPMI-8226) was 12.4 µM (inactive). The GI50 (SK-OV-3) was 34.6 µM (inactive), the GI50 (NCI-H23) was 11.4 µM (inactive) and the GI50 (SR) was 17.7 µM (inactive). The GI50 (COLO 205) was 25.4 µM (inactive), the GI50 (NCI/ADR-RES) was 17.7 µM (inactive) and the GI50 (HCT-15) was 6.9 µM. The GI50 (KM12) was 11.4 µM (inactive), the GI50 (PC-3) was 19.1 µM (inactive) and the GI50 (IGROV-1) was 11 µM (inactive). The GI50 (SK-MEL-5) was 11.1 µM (inactive), the GI50 (K562) was 45.4 µM (inactive) and the GI50 (786-0) was 19.5 µM (inactive). The GI50 (UACC-62) was 17.7 µM (inactive), the GI50 (SN12C) was 65.3 µM (inactive) and the GI50 (U-251) was 37.8 µM (inactive). For the same molecule, the GI50 (OVCAR-4) was 13.7 µM (inactive), the GI50 (RXF 393) was 11.7 µM (inactive) and the GI50 (MDA-MB-435) was 33.5 µM (inactive). The GI50 (BT-549) was 13.5 µM (inactive), the GI50 (ACHN) was 13 µM (inactive) and the GI50 (HOP-92) was 31.1 µM (inactive). The GI50 (NCI-H522) was 1.63 µM (inactive), the GI50 (MCF7) was 6.81 µM (inactive) and the GI50 (DU-145) was 26.4 µM (inactive). For the same molecule, the GI50 (LOX IMVI) was 50 µM (inactive), the GI50 (MDA-N) was 49.9 µM (inactive) and the GI50 (EKVX) was 23.9 µM (inactive). The GI50 (A498) was > 100 µM (inactive), the GI50 (Malme-3M) was 14.2 µM (inactive) and the GI50 (OVCAR-8) was 13.2 µM (inactive).

For `CSc1ccc2c(cc1=O)[C@@H](NC(=O)c1ccc(N)cc1)CCc1cc(O)c(O)c(O)c1-2`, the GI50 (HCC 2998) was 13.6 µM (inactive), the GI50 (OVCAR-5) was 22 µM (inactive) and the GI50 (SK-MEL-28) was > 75 µM (inactive). For the same molecule, the GI50 (NCI-H460) was 15 µM (inactive), the GI50 (UO-31) was 20.3 µM (inactive) and the GI50 (A549) was 19.1 µM (inactive). For the same molecule, the GI50 (SF-295) was 17.2 µM (inactive), the GI50 (UACC-257) was 20.8 µM (inactive) and the GI50 (SF-268) was 14.3 µM (inactive). The GI50 (MOLT-4) was 33.1 µM (inactive), the GI50 (RPMI-8226) was 35 µM (inactive) and the GI50 (NCI/ADR-RES) was 18.6 µM (inactive). The GI50 (HCT-15) was 11.2 µM, the GI50 (IGROV-1) was 20.4 µM (inactive) and the GI50 (K562) was 12.1 µM (inactive). For the same molecule, the GI50 (786-0) was 12.8 µM (inactive), the GI50 (SN12C) was 29.5 µM (inactive) and the GI50 (U-251) was 19.4 µM (inactive). For the same molecule, the GI50 (OVCAR-4) was 16.1 µM (inactive), the GI50 (RXF 393) was > 75 µM (inactive) and the GI50 (MDA-MB-435) was 14.5 µM (inactive). For the same molecule, the GI50 (BT-549) was 16.9 µM (inactive), the GI50 (ACHN) was 17 µM (inactive) and the GI50 (HOP-92) was 29.4 µM (inactive). The GI50 (T47D) was 44 µM (inactive), the GI50 (HOP-62) was 14.4 µM (inactive) and the GI50 (SNB-19) was 21.8 µM (inactive). For the same molecule, the GI50 (NCI-H522) was 13.8 µM (inactive), the GI50 (DU-145) was > 75 µM (inactive) and the GI50 (EKVX) was 36.4 µM (inactive). The GI50 (A498) was 73.8 µM (inactive) and the GI50 (OVCAR-8) was 26.5 µM (inactive).
